Patent publication US8022091B2, “Triazole derivative” (Taisho Pharmaceutical Co., Ltd., priority 2006, dated 2011)

Target: T1, human Edg-1 (S1P1) (Homo sapiens, UniProt P21453)
T1 construct: expressed in transfected cells; host or cells: HEK-293
Assay: S1P1 binding assay: inhibition of [33P]-S1P binding to membrane fraction of HEK-293 cells transferred with the human Edg-1 (S1P1) gene
Details: test compound at 10 μM; inhibition of [33P]-S1P binding to the membrane fraction of HEK-293 cells expressing human Edg-1 (S1P1)
Experimental: The membrane fraction was obtained by treating the cells with a solubilizing buffer (1 mM Tris/HCl, pH 7.2) for 10 minutes on ice, centrifuging at 1000×g for 5 minutes to remove insoluble fractions, and then centrifuging at 40000×g for 30 minutes at 4° C. The resulting membrane fraction was dissolved in a binding buffer (20 mM Tris-HCl, pH 7.4, 100 mM NaCl, 15 mM NaF, 2 mM deoxypyridoxine, 4 mg/mL fatty acid-free BSA), and then [^33P]-S1P (manufactured by ARC, final concentration 0.1 nM) and a DMSO solution (final concentration of the compound 10^−5M, final concentration of DMSO 0.1%) of the test compound were added. Thereafter, the mixture was stirred and then treated for one hour at 30° C. Using a harvester, the membrane fraction was harvested onto unifilter-96 GF/C filter (manufactured by Perkin Elmer), washing was carried out four times with the binding buffer, and the filter was dried. Twenty five μL Microscint 0 (manufactured by Perkin Elmer) was added, and radioactivity was measured using Top Count NXT (manufactured by Packard) to calculate the amount (A) of [^33P]-S1P bound to the membrane fraction at the time when the compound was added.
The same procedure was carried out in the absence of the test compound, and the amount (B) of [^33P]-S1P bound was calculated. Further, the same procedure was carried out in the absence of the test compound by use of HEK-293 cells to which no Edg-1 (S1P1) gene was introduced, and the background amount (C) of [^33P]-S1P bound was calculated.
Inhibition rate (%)=[1−(A−C)/(B−C)]×100
Further, concentrations (IC50) at the time when binding in the absence of the test compound was inhibited by 50% were calculated. The membrane system binding assay was carried out in the presence of test compounds with various concentrations, and the Edg-1 (S1P1) binding inhibition rates were calculated using the equation above. Then, IC50 values were calculated using Origin (Lightstone Corp.), a software for data analysis.

T1 sequence (P21453 whole entry): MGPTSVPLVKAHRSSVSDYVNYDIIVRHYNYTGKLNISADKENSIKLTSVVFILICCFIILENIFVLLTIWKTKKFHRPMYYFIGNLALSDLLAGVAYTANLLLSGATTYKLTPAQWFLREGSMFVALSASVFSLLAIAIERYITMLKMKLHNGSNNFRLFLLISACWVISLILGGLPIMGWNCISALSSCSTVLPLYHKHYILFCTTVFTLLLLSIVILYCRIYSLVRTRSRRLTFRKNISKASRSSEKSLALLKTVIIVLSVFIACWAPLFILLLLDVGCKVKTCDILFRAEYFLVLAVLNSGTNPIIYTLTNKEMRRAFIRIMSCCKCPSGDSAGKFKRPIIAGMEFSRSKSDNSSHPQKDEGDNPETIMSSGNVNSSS

Going from `CCn1c(Oc2ccc(F)cc2)nnc1[C@@H](C)NS(=O)(=O)c1cc(F)ccc1C` [Compound 219] to `CCn1c(Oc2ccc(F)cc2)nnc1[C@@H](C)NS(=O)(=O)c1ccc(F)cc1C` [Compound 273], the inhibition at 10 µM rises from 70.8% to 71.6%.

Compared with `Cc1c(C)c(C)c(S(=O)(=O)N[C@H](C)c2nnc(Oc3ccc(F)cc3)n2C)c(C)c1C` [Compound 220], `CCn1c(Oc2ccc(F)cc2)nnc1[C@@H](C)NS(=O)(=O)c1cc(C)sc1C` [Compound 300] is lower in inhibition at 10 µM: 93.7% for the first, 82.1% for the second.

First: CCn1c(Oc2ccc(F)cc2)nnc1[C@@H](C)NS(=O)(=O)c1cc(C)ccc1OC [Compound 221]
Second: CCn1c(Oc2ccc(F)cc2)nnc1[C@@H](C)NS(=O)(=O)c1cc(Cl)ccc1OC [Compound 254]
The inhibition at 10 µM of the first is lower: 69.2% for the first, 75.1% for the second.

Going from `CCn1c(Oc2ccc(F)cc2)nnc1[C@@H](C)NS(=O)(=O)c1ccc(C#N)cc1` [Compound 223] to `CCn1c(Oc2ccc(F)cc2)nnc1[C@@H](C)NS(=O)(=O)c1ccc(C(C)C)cc1` [Compound 232], the inhibition at 10 µM falls from 90.8% to 68.7%.

Compared with `CCn1c(Oc2ccc(F)cc2)nnc1[C@@H](C)NS(=O)(=O)c1ccc(Cl)cc1Cl` [Compound 226], `CCn1c(Oc2ccc(F)cc2)nnc1[C@@H](C)NS(=O)(=O)c1ccc(Cl)cc1F` [Compound 267] is higher in inhibition at 10 µM: 80.4% for the first, 89.6% for the second.

Compared with `CCn1c(Oc2ccc(F)cc2)nnc1[C@@H](C)NS(=O)(=O)c1ccc(F)cc1F` [Compound 227], `CCn1c(Oc2ccc(F)cc2)nnc1[C@@H](C)NS(=O)(=O)c1ccc(Br)cc1F` [Compound 242] is higher in inhibition at 10 µM: 51.4% for the first, 85.9% for the second.

First: CCn1c(Oc2ccc(F)cc2)nnc1[C@@H](C)NS(=O)(=O)c1cc(OC)ccc1OC [Compound 228]
Second: CCn1c(Oc2ccc(F)cc2)nnc1[C@@H](C)NS(=O)(=O)c1ccc(OC)cc1OC [Compound 301]
The inhibition at 10 µM of the first is lower: 53.9% for the first, 78.8% for the second.

First: CCn1c(Oc2ccc(F)cc2)nnc1[C@@H](C)NS(=O)(=O)c1cccc(Cl)c1 [Compound 231]
Second: CCn1c(Oc2ccc(F)cc2)nnc1[C@@H](C)NS(=O)(=O)c1cccc(F)c1 [Compound 252]
The inhibition at 10 µM of the first is lower: 65.1% for the first, 82.8% for the second.

Compared with `CCn1c(Oc2ccc(F)cc2)nnc1[C@@H](C)NS(=O)(=O)c1cc(F)cc(Cl)c1C` [Compound 233], `CCn1c(Oc2ccc(F)cc2)nnc1[C@@H](C)NS(=O)(=O)c1cc(F)c(F)cc1Cl` [Compound 240] is lower in inhibition at 10 µM: 87.1% for the first, 82.5% for the second.

First: CCc1cc(Br)ccc1S(=O)(=O)N[C@H](C)c1nnc(Oc2ccc(F)cc2)n1CC [Compound 234]
Second: CCn1c(Oc2ccc(F)cc2)nnc1[C@@H](C)NS(=O)(=O)c1ccc(Br)cc1C [Compound 235]
The inhibition at 10 µM of the first is lower: 50.6% for the first, 82.9% for the second.

Compared with `CCn1c(Oc2ccc(F)cc2)nnc1[C@@H](C)NS(=O)(=O)c1ccc(F)c(F)c1F` [Compound 237], `CCn1c(Oc2ccc(F)cc2)nnc1[C@@H](C)NS(=O)(=O)c1cc(F)c(F)cc1F` [Compound 256] is higher in inhibition at 10 µM: 64.8% for the first, 85.2% for the second.

Going from `CCn1c(Oc2ccc(F)cc2)nnc1[C@@H](C)NS(=O)(=O)c1ccc(F)c(F)c1` [Compound 241] to `CCn1c(Oc2ccc(F)cc2)nnc1[C@@H](C)NS(=O)(=O)c1ccc(C)c(F)c1` [Compound 272], the inhibition at 10 µM rises from 95.8% to 104%.

First: CCn1c(Oc2ccc(F)cc2)nnc1[C@@H](C)NS(=O)(=O)c1cc(F)c(Cl)cc1F [Compound 243]
Second: CCn1c(Oc2ccc(F)cc2)nnc1[C@@H](C)NS(=O)(=O)c1cc(Cl)c(F)cc1F [Compound 245]
The inhibition at 10 µM of the first is higher: 90% for the first, 89.3% for the second.

Compared with `CCn1c(Oc2ccc(F)cc2)nnc1[C@@H](C)NS(=O)(=O)c1cc(Br)c(F)cc1F` [Compound 244], `CCn1c(Oc2ccc(F)cc2)nnc1[C@@H](C)NS(=O)(=O)c1c(F)cc(F)cc1Br` [Compound 265] is lower in inhibition at 10 µM: 94.6% for the first, 59.1% for the second.

Compared with `CCn1c(Oc2ccc(F)cc2)nnc1[C@@H](C)NS(=O)(=O)c1cc(C)c(Cl)cc1Cl` [Compound 248], `CCn1c(Oc2ccc(F)cc2)nnc1[C@@H](C)NS(=O)(=O)c1c(C)cc(Cl)cc1Cl` [Compound 255] is lower in inhibition at 10 µM: 105% for the first, 86.4% for the second.

First: CCn1c(Oc2ccc(F)cc2)nnc1[C@@H](C)NS(=O)(=O)c1cc(C(F)(F)F)ccc1Cl [Compound 251]
Second: CCn1c(Oc2ccc(F)cc2)nnc1[C@@H](C)NS(=O)(=O)c1ccc(C(F)(F)F)cc1Cl [Compound 303]
The inhibition at 10 µM of the first is lower: 59% for the first, 77.4% for the second.

First: CCn1c(Oc2ccc(F)cc2)nnc1[C@@H](C)NS(=O)(=O)c1cc(Br)ccc1Br [Compound 257]
Second: CCn1c(Oc2ccc(F)cc2)nnc1[C@@H](C)NS(=O)(=O)c1ccc(Br)cc1Br [Compound 260]
The inhibition at 10 µM of the first is higher: 78.2% for the first, 74.1% for the second.

Compared with `CCn1c(Oc2ccc(F)cc2)nnc1[C@@H](C)NS(=O)(=O)c1ccc(-c2ccno2)s1` [Compound 258], `CCn1c(Oc2ccc(F)cc2)nnc1[C@@H](C)NS(=O)(=O)c1ccc(F)cc1Br` [Compound 269] is higher in inhibition at 10 µM: 67.9% for the first, 91.5% for the second.

Going from `CCn1c(Oc2ccc(F)cc2)nnc1[C@@H](C)NS(=O)(=O)c1ccc(F)c(C#N)c1` [Compound 261] to `CCn1c(Oc2ccc(F)cc2)nnc1[C@@H](C)NS(=O)(=O)c1ccc(Br)c(F)c1` [Compound 275], the inhibition at 10 µM rises from 73.6% to 107%.

Going from `CCn1c(Oc2ccc(F)cc2)nnc1[C@@H](C)NS(=O)(=O)c1cc(C)cc(C)c1` [Compound 262] to `CCn1c(Oc2ccc(F)cc2)nnc1[C@@H](C)NS(=O)(=O)c1cc(F)cc(F)c1` [Compound 266], the inhibition at 10 µM rises from 79.6% to 99%.

Going from `CCn1c(Oc2ccc(F)cc2)nnc1[C@@H](C)NS(=O)(=O)c1ccc(OC(F)F)cc1` [Compound 263] to `CCn1c(Oc2ccc(F)cc2)nnc1[C@@H](C)NS(=O)(=O)c1cccc(OC(F)F)c1` [Compound 264], the inhibition at 10 µM rises from 82.6% to 95.9%.

First: CCn1c(Oc2ccc(F)cc2)nnc1[C@@H](C)NS(=O)(=O)c1cc(F)c(F)c(F)c1 [Compound 268]
Second: CCn1c(Oc2ccc(F)cc2)nnc1[C@@H](C)NS(=O)(=O)c1cc(Cl)ccc1F [Compound 274]
The inhibition at 10 µM of the first is higher: 99.9% for the first, 53.5% for the second.

Compared with `CCn1c(Oc2ccc(F)cc2)nnc1[C@@H](C)NS(=O)(=O)c1ccc(C(F)(F)F)cc1Br` [Compound 270], `CCn1c(Oc2ccc(F)cc2)nnc1[C@@H](C)NS(=O)(=O)c1cc(C(F)(F)F)ccc1Br` [Compound 271] is lower in inhibition at 10 µM: 73% for the first, 57.1% for the second.

First: CCn1c(Oc2ccc(F)cc2)nnc1[C@@H](C)NS(=O)(=O)c1ccc(Br)cc1Cl [Compound 276]
Second: CCn1c(Oc2ccc(F)cc2)nnc1[C@@H](C)NS(=O)(=O)c1cccc(Cl)c1F [Compound 280]
The inhibition at 10 µM of the first is higher: 94.4% for the first, 87.3% for the second.

Compared with `CCn1c(Oc2ccc(F)cc2)nnc1[C@@H](C)NS(=O)(=O)c1cc(C)ccc1F` [Compound 279], `CCn1c(Oc2ccc(F)cc2)nnc1[C@@H](C)NS(=O)(=O)c1ccsc1` [Compound 294] is lower in inhibition at 10 µM: 79.6% for the first, 50.8% for the second.

Going from `CCn1c(Oc2ccc(F)cc2)nnc1[C@@H](C)NS(=O)(=O)CC1CCCCC1` [Compound 286] to `CCn1c(Oc2ccc(F)cc2)nnc1[C@@H](C)NS(=O)(=O)c1ccc2c(c1)OCCO2` [Compound 289], the inhibition at 10 µM rises from 60.6% to 106%.

`CCn1c(Oc2ccc(F)cc2)nnc1[C@@H](C)NS(=O)(=O)c1ccc2nsnc2c1` [Compound 292] showed an inhibition at 10 µM of 107%.
